Measured values as given in article PMC3265452 (PLoS Neglected Tropical Diseases, 2012).
Where two headings read alike, the source gives them in different places.

Target: AaDOP2 (Aedes aegypti, UniProt H6D5H2)
Assay: AaDOP2 antagonist screen of the LOPAC1280 library (HEK-CRELuc-Aadop2 cells, luminescence)
Type: cell-based
[1] = 10 µM compound, 300 nM dopamine, 2 hr, hit = compound effect <20

AaDOP2, sequence (H6D5H2 1-476): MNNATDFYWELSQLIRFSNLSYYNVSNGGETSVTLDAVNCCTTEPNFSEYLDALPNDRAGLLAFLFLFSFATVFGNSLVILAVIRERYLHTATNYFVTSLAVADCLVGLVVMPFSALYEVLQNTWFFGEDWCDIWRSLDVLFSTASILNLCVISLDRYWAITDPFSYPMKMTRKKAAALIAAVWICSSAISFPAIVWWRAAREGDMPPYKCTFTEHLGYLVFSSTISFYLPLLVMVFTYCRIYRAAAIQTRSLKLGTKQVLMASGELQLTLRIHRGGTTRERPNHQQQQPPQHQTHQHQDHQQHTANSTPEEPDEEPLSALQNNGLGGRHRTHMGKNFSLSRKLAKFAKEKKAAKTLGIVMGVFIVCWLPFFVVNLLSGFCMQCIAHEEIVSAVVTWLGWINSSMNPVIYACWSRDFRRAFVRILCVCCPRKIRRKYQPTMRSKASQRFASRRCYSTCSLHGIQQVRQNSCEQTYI

Molecule | Compound effect (percent receptor signaling in presence of test compound, relative lux units relative to the SCH23390 control) | Compound effect (percent receptor signaling in presence of test compound, relative lux units relative to the SCH23390 control) [1] [%]
2-Methylthioadenosine diphosphate trisodium [Compound 826] | 92 | 
2-Methylthioadenosine triphosphate tetrasodium [Compound 120] | 99 | 
17alpha-hydroxyprogesterone [Compound 593] | 83 | 
CCOC(=O)[C@]12CC1/C(=N\O)c1ccccc1O2 (mixture of isomers) [Compound 318, CPCCOEt] | 58 | 
CC(N)(Cc1ccc(O)cc1)C(=O)O (racemic) [Compound 1, DL-alpha-Methyl-p-tyrosine] | 95 | 
O=C(O)C1CCCNC1 (racemic) [Compound 5, (±)-Nipecotic acid] | 99 | 
NC[C@H](O)c1ccc(O)c(O)c1.O=C(O)C(O)C(O)C(=O)O (racemic) [Compound 22, (±)-Norepinephrine (+)bitartrate] |  | 102
NC(CCP(=O)(O)O)C(=O)O (racemic) [Compound 31, (±)-2-Amino-4-phosphonobutyric acid] | 124 | 
NC(CP(=O)(O)O)C(=O)O (racemic) [Compound 55, (±)-2-Amino-3-phosphonopropionic acid] | 102 | 
NC(CCCCCP(=O)(O)O)C(=O)O (racemic) [Compound 57, (±)-2-Amino-7-phosphonoheptanoic acid] | 93 | 
NC(CCCP(=O)(O)O)C(=O)O (racemic) [Compound 58, (±)-2-Amino-5-phosphonopentanoic acid] |  | 89
CCC1(c2ccc(N)cc2)CCC(=O)NC1=O (racemic) [Compound 109, (±)-p-Aminoglutethimide] | 106 | 
NC1CCN(O)C1=O (racemic) [Compound 110, (±)-HA-966] | 107 | 
N[C@@]1(C(=O)O)CC[C@@H](C(=O)O)C1 (racemic) [Compound 130, trans-(±)-ACPD] |  | 116
C=CCN1CC[C@@]2(C)c3cc(O)ccc3C[C@@H]1[C@@H]2C.Cl (racemic) [Compound 131, (±)-N-Allylnormetazocine hydrochloride] | 105 | 
CN(C)CCC(c1ccc(Br)cc1)c1ccccn1.O=C(O)/C=C\C(=O)O (racemic) [Compound 165, (±)-Brompheniramine maleate] |  | 63
CCCCS(=N)(=O)CCC(N)C(=O)O (racemic) [Compound 168, DL-Buthionine-[S,R]-sulfoximine] | 77 | 
NCC(CC(=O)O)c1ccc(Cl)cc1 (racemic) [Compound 177, (±)-Baclofen] |  | 111
COC(=O)C1=C(C)NC(C)=C([N+](=O)[O-])C1c1ccccc1C(F)(F)F (racemic) [Compound 203, (±)-Bay K 8644] | 73 | 
CN(C)CCC(c1ccc(Cl)cc1)c1ccccn1.O=C(O)/C=C\C(=O)O (racemic) [Compound 243, (±)-Chlorpheniramine maleate] | 77 | 
